The values below come from ChEMBL document CHEMBL5335776, “Development, validation, and evaluation of a deep learning model to screen cyclin-dependent kinase 12 inhibitors in cancers” (Eur J Med Chem, 2023).

One assay addresses CDK12/Cyclin K (Homo sapiens, UniProt Q9NYV4). The experiment in a line: Inhibition of CDK12/Cyclin K (unknown origin) preincubated for 10 mins followed by substrate and ATP addition measured after 200 mins by ADP-Glo luminescence assay. In kind it is protein-complex assay. On the technique in general: In ADP-Glo the light output rises with the ADP produced.
In assay [1] the target is Cyclin-dependent kinase 13/Cyclin-K (Homo sapiens, UniProt Q14004). The experiment in a line: Inhibition of CDK13/Cyclin K (unknown origin) preincubated for 10 mins followed by substrate and ATP addition measured after 200 mins by ADP-Glo luminescence assay. In kind it is protein-complex assay.
Chain of Cyclin-dependent kinase 13/Cyclin-K (Q14004 whole entry): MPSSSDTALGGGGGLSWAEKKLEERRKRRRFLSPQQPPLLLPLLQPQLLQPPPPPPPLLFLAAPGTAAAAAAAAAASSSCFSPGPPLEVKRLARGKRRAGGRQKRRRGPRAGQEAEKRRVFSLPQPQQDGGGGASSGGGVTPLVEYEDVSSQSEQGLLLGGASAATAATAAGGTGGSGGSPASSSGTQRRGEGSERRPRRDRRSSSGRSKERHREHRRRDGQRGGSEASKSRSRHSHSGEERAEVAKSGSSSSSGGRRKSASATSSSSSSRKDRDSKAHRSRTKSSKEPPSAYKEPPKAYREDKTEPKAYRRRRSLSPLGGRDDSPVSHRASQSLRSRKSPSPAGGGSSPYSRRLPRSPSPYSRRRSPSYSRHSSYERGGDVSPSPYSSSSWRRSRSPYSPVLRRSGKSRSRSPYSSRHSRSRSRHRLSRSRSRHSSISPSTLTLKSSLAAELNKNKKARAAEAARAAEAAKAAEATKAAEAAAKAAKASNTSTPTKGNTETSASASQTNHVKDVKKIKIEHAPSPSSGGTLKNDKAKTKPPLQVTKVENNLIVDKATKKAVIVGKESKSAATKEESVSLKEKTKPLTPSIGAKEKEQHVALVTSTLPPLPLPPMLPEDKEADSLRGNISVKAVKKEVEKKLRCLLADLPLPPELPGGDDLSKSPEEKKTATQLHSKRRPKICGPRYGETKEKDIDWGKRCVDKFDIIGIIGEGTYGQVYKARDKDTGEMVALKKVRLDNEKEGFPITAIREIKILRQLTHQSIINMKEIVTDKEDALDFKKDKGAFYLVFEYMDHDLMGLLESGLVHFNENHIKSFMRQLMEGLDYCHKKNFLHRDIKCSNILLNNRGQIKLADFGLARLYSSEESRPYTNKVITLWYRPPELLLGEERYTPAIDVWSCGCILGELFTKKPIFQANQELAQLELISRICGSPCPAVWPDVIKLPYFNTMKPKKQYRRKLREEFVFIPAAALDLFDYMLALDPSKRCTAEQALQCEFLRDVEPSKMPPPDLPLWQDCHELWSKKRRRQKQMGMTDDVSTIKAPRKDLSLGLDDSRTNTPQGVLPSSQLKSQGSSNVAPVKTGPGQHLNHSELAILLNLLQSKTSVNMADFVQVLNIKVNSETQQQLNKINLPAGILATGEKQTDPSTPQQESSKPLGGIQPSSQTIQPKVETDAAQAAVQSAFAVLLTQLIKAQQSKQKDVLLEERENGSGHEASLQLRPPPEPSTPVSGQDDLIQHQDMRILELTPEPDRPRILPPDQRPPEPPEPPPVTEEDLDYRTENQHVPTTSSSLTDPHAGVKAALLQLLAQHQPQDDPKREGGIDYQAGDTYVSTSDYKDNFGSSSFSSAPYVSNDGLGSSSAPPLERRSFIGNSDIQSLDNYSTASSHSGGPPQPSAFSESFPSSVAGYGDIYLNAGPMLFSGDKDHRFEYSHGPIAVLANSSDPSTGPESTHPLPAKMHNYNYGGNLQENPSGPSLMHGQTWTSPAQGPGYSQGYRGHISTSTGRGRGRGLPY
Chain of Cyclin-dependent kinase 13/Cyclin-K (O75909 whole entry, further chain): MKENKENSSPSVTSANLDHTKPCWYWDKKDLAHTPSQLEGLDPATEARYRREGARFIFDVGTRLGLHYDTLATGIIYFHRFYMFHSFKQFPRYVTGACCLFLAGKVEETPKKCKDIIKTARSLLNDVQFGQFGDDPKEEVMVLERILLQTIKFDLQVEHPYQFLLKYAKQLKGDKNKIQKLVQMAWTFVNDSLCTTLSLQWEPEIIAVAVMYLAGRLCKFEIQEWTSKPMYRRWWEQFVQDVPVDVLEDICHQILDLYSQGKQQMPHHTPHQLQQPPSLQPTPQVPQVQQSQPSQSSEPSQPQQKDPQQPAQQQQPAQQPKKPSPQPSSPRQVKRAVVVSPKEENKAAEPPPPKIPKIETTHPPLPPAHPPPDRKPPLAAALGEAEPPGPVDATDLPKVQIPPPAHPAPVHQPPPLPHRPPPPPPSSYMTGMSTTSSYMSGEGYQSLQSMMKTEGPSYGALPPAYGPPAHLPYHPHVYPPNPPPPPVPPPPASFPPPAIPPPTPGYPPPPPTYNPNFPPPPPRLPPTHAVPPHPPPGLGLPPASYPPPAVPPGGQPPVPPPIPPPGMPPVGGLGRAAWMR
A further assay deals with BT-474. The experiment in a line: Cytotoxicity against human BT-474 cells incubated for 48 hrs by CCK-8 reagent microplate reader assay. The following applies: BT-474, 48 h. The format is functional, cell-based. (In general: Tetrazolium assays rely on reduction of a dye to a coloured formazan, in cell work by metabolically active cells.)
Assay [2] deals with T1, CDK12/Cyclin K (Homo sapiens) (UniProt O75909+Q9NYV4). The experiment in a line: Inhibition of CDK12/Cyclin K (unknown origin) at 0.1 uM preincubated for 10 mins followed by substrate and ATP addition measured after 200 mins by ADP-Glo luminescence assay relative to control. The format is protein-complex assay. The following applies: time 210.0 min.
T1 sequence (O75909 whole entry, looked up): as the sequence (O75909 whole entry, further chain) above
T1 sequence (Q9NYV4 whole entry, looked up): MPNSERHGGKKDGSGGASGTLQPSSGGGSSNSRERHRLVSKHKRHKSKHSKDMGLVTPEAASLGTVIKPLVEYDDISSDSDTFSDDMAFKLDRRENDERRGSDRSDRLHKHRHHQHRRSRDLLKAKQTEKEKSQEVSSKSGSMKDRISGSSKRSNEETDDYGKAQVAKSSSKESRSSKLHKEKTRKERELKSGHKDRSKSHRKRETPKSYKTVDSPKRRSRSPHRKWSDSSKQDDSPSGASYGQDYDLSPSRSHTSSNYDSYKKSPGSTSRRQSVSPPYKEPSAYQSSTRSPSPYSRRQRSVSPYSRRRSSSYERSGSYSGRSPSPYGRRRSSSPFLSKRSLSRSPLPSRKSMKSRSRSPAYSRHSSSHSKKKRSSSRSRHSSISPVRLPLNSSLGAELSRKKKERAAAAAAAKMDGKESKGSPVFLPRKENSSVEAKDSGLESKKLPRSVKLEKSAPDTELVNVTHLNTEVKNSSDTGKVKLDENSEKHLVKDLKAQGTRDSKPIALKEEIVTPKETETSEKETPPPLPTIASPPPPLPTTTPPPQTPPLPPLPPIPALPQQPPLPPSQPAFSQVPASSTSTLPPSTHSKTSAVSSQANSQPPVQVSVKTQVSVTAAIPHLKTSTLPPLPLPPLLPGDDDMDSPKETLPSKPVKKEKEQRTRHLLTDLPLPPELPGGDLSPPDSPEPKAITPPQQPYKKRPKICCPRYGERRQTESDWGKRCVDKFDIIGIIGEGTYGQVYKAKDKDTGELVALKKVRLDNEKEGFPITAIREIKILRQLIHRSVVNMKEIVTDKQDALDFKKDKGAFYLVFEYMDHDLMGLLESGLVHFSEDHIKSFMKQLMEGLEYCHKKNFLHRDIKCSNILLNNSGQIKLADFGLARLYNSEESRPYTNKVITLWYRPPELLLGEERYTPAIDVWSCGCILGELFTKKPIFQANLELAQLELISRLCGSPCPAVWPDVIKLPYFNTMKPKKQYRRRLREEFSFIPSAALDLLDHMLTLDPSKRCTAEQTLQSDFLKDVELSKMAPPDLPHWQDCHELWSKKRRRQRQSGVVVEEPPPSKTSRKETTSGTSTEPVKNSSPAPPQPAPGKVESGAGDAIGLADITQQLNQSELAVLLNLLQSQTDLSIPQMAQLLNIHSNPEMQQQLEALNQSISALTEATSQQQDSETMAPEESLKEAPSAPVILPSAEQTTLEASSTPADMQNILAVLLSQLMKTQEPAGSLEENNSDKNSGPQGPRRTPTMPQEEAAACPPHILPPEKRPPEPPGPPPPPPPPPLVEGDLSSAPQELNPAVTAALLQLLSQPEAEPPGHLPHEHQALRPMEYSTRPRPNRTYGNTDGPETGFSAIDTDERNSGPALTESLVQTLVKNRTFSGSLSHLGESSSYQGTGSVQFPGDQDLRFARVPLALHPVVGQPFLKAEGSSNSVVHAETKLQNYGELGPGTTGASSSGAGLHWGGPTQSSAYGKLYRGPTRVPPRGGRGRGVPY
Assay [3] concerns the target T1, CDK12/Cyclin K (Homo sapiens). The experiment in a line: Inhibition of CDK12/Cyclin K (unknown origin) at 1 uM preincubated for 10 mins followed by substrate and ATP addition measured after 200 mins by ADP-Glo luminescence assay relative to control. In kind it is protein-complex assay. The following applies: time 210.0 min.
Assay [4] has the same target. The experiment in a line: Inhibition of CDK12/Cyclin K (unknown origin) at 10 uM preincubated for 10 mins followed by substrate and ATP addition measured after 200 mins by ADP-Glo luminescence assay relative to control. The following applies: time 210.0 min. The format is protein-complex assay.

Each structure is given as a SMILES string. pIC50: −log10 of the molar value.

The pIC50 is −log10 of the IC50, conventionally taken in molar units. Read a high pIC50 as a low IC50. As a reminder, the inhibition is the share of the control response that was lost under treatment. Higher therefore signals strong suppression.

Chain of CDK12/Cyclin K (O75909 whole entry): as the sequence (O75909 whole entry, further chain) above
Chain of CDK12/Cyclin K (Q9NYV4 whole entry): as the sequence (Q9NYV4 whole entry, looked up) above

As for `Cn1cc(C2=C(c3cn(CCCSC(=N)N)c4ccccc34)C(=O)NC2=O)c2ccccc21` [BISINDOLYLMALEIMIDE IX], the results for the pIC50 (against CDK12/Cyclin K; in assay [1]) were 6.84 and 6.69, respectively.
On to `Cc1cc(O)c(-c2ccc([C@@H](C)CN)cc2)c2c1[nH]c(=O)c1sccc12`, for which the negative logarithm of the IC50 (pIC50) in the assay on BT-474 is 5.20.
`CN1CCN(Cc2ccc(NC(=O)c3n[nH]cc3Nc3ncnc4[nH]ccc34)cc2)CC1`: the results for the negative logarithm of the IC50 (pIC50) (in the assay on BT-474; against CDK12/Cyclin K; in assay [1]) were 4.62, 6.74 and 6.73, respectively.
Consider `O=C1CC[C@@H](N2C(=O)c3cccc(OCCCCCOc4ccc(CC(=O)Nc5cc(C6CCC6)[nH]n5)cc4)c3C2=O)C(=O)N1`, for which the negative logarithm of the IC50 (pIC50) was 4.37 in the assay with BT-474 and 6.13 against CDK12/Cyclin K.
`C=CC(=O)Nc1cccc(Nc2cc(N3CCCC[C@H]3CCO)nc3c(CC)cnn23)c1`: the pIC50 in the assay on BT-474 is 6.31; against CDK12/Cyclin K, 7.13; in assay [1], 7.53.
Regarding `Cn1ncc(-c2nc(N[C@H]3CC[C@H](N)CC3)ncc2F)c1CC1CC1`, the results for the negative-log IC50 (pIC50) (in the assay with BT-474; against CDK12/Cyclin K; in assay [1]) were 4.95, 7.28 and 7.67, respectively.
Take `CN(C)C/C=C/C(=O)Nc1ccc(C(=O)N2CCC[C@@H](Nc3ncc(Cl)c(-c4c[nH]c5ccccc45)n3)C2)cc1`: the figures for the inhibition in assay [2], in assay [3] and in assay [4] were 98.7%, 96.7% and 33%, respectively. The pIC50 against CDK12/Cyclin K is 6.82; in assay [1], 7.40.
Consider `NCCCNc1ccc(Nc2nccc(Nc3cc(C4CC4)[nH]n3)n2)cc1`, for which the pIC50 in the assay with BT-474 is 5.04; against CDK12/Cyclin K, 6.58; in assay [1], 6.81.
For the compound `COc1cc(F)ccc1-c1cc(Nc2cc(C[S@@](C)(=N)=O)ccn2)ncc1F`, the pIC50 with BT-474 was 6.07; at CDK12/Cyclin K it was 6.37.
